Source: patent US10265276B2, “Pharmaceutical composition for preventing or treating arthritis or inflammatory disease containing 2-methoxy-4-(3-(4-methoxyphenyl)propyl-1-en-1-yl)phenol as active ingredient” (CHUNGBUK NATIONAL UNIVERSITY INDUSTRY-ACADEMIC COOPERATION …, priority 2015, dated 2019)

Test system: CAIA-induced C57BL/6 mice
Assay: Collagen antibody-induced arthritis (CAIA) model
Format: in vivo, mouse
Conditions: 5 mg/kg, p.o. daily
Procedure: 14. Induction of rheumatoid arthritis in C57BL/6 mice: To induce rheumatoid arthritis, anti-collagen-II mAbs (CII-Ab, Arthrogen-CIA Arthritogenic Monoclonal Antibody, #53010: Chondrex, Inc., WA, USA) were intraperitoneally (i.p.) injected into 7-week-old male mice on the first day, and 50 μg of LPS was injected on the third day. To evaluate the severity of arthritis, a scoring system was applied according to the criteria.
0. No erythema and swelling are observed.
1. Slight erythema is observed in tarsals and ankle joints.
2. Slight erythema and swelling are observed from an ankle joint to the midfoot.
3. Erythema and swelling extending from ankle joints to the metatarsals are observed.
4. Erythema and severe swelling were observed throughout the ankles, feet, and fingers.
The sum of final scores was recorded daily until the sum reached 16. On the 18th day, each of the mice was anesthetized, and then located on a radiographic view box. Thereafter, a location of each of the mice was adjusted so that the mouse was disposed at a distance of 90 cm from an X-ray source. The radioanalysis on hind legs with arthritis was performed by irradiating the hind legs at […] for 0.01 seconds using an X-ray machine (BLD-150RK, Hradec Kralove, Czech Republic).
15. Immunohistochemical assay: An immunohistochemical assay was carried out using an avidin-biotin-peroxidase method known in the art. Each of joint tissue samples collected from the mice was fixed with formalin, and embedded in paraffin. These samples were continuously microtomed into sections with a thickness of 4 μm. Each of the sections was stained with haematoxylin/eosin (H&E), anti-COX-2 and anti-iNOS antibodies (Caymen Chemical, Ann Arbor, Mich.).
Referring to FIG. 10(A), MMPP (5 mg/kg, p.o.) (dissolved in 100 μL of PBS including 0.5 μL of DMSO), a vehicle (a negative control), or indomethacin (5 mg/kg, p.o./dissolved in […] of PBS after the dissolution) was administered daily to 7-week-old male C57BL/6 mice for 18 days.

SMILES: COc1ccc2c(c1)c(CC(=O)O)c(C)n2C(=O)c1ccc(Cl)cc1 [indomethacin, reference compound]
- clinical score lower than that of the CAIA group: 64.8%
